ChEMBL document CHEMBL5528088, “Design and Synthesis of Cyclolipopeptide Mimics of Dysoxylactam A and Evaluation of the Reversing Potencies against P-Glycoprotein-Mediated Multidrug Resistance” (J Med Chem, 2024)

Tests used:
Format in all cases: functional
[1] = tested on: KBv200; assay: Inhibition of cell proliferation in human KBv200 cells assessed as inhibition of VNR at 10 uM incubated for 72 hrs in presence of VNR by SRB assay relative to control
[2] = tested on: KBv200; assay: Cytotoxicity against human KBv200 cells at 10 uM incubated for 72 hrs by SRB assay relative to control
[3] = tested on: KBv200; assay: Reversal fold, ratio of VNR IC50 to VNR IC50 in presence of test compound for human KBv200 cells incubated for 72 hrs by SRB assay

| SMILES | inhibition at 10 µM [1] [%] | Activity [2] [%] | Ratio IC50 [3] |
| --- | --- | --- | --- |
| CC(C)[C@@H]1NC(=O)CCCCCCCC(=O)Nc2cccc(c2)COC1=O | 13.1 | – | – |
| CC(C)[C@@H]1NC(=O)CCCCCCCC(=O)N[C@@H](C(C)(C)C)COC1=O | 53.6 | – | – |
| CC(C)C1NC(=O)CCCCCCCC(=O)N[C@@]23C[C@H]4C[C@@H](C2)C[C@](C4)(C3)OC1=O (some centres not stated) | 42.9 | – | – |
| CC(C)[C@@H]1NC(=O)CCCCCCCC(=O)Nc2ccccc2OC1=O | 14.5 | – | – |
| CC(C)[C@@H]1NC(=O)CCCCCCCC(=O)NCCCCOC1=O | 15.7 | – | – |
| CC(C)[C@@H]1NC(=O)CCCCCCCC(=O)NCCCCCOC1=O | 26.6 | – | – |
| CC(C)[C@@H]1NC(=O)CCCCCCCC(=O)N[C@@H](Cc2ccccc2)COC(=O)CCNC1=O | 12 | – | – |
| CC(C)[C@@H]1NC(=O)CCCCCCCC(=O)N[C@@H](Cc2ccccc2)COC(=O)CNC1=O | 11 | – | – |
| CC[C@H](C)[C@@H]1NC(=O)[C@H](C(C)C)NC(=O)CCCCCCCC(=O)NCCOC1=O | 51.1 | – | – |
| CC[C@H](C)[C@@H]1NC(=O)[C@H](C(C)C)NC(=O)CCCCCCCC(=O)Nc2cc(F)cc(c2)COC1=O | 90.7 | 4.6 | 19.3 |
| CC[C@H](C)[C@@H]1NC(=O)[C@H](C(C)C)NC(=O)CCCCCCCC(=O)NCc2cccc(c2)OC1=O | 6.4 | – | – |
| CC[C@H](C)[C@@H]1NC(=O)[C@H](C(C)C)NC(=O)CCCCCCCC(=O)NCCCCOC1=O | 54 | – | – |
| CC[C@H](C)[C@H]1COC(=O)[C@H](C(C)C)NC(=O)CCCCCCCC(=O)N1 | 51.2 | – | – |
| CC(C)[C@@H]1NC(=O)CCCCCCCC(=O)N[C@@H](Cc2ccccc2)COC1=O | 80.6 | 0 | 26.1 |
| CC(C)[C@@H]1NC(=O)CCCCCCCC(=O)N[C@@H](C)COC1=O | 20.7 | – | – |
| CC(C)[C@@H]1NC(=O)CCCCCCCCCCC(=O)N[C@@H](Cc2ccccc2)COC1=O | 97.6 | 5 | 85 |
| CC(C)[C@@H]1NC(=O)CCCCCCCC(=O)NCCCOC1=O | 15 | – | – |
| CC[C@H](C)[C@@H]1NC(=O)[C@H](C(C)C)NC(=O)CCCCCCC(=O)Nc2cccc(c2)COC1=O | 83.5 | 4.4 | 10.2 |
| CC(C)[C@@H]1NC(=O)CCCCCC(=O)N[C@@H](Cc2ccccc2)COC1=O | 42.6 | – | – |
| CC[C@H](C)[C@@H]1NC(=O)[C@H](C(C)C)NC(=O)CCCCCC(=O)N[C@@H](Cc2ccccc2)COC1=O | 25.7 | – | – |

| SMILES | inhibition at 10 µM [1] [%] | Activity [2] [%] | Ratio IC50 [3] |
| --- | --- | --- | --- |
| CC[C@H](C)[C@@H]1NC(=O)[C@H](C(C)C)NC(=O)CCCCCCCCC(=O)N[C@@H](Cc2ccccc2)COC1=O | 89.7 | 8.6 | 22.2 |
| CC(C)[C@@H]1NC(=O)CCCCCCCCC(=O)N[C@@H](Cc2ccccc2)COC1=O | 85.4 | 2.2 | 31.7 |
| CC(C)[C@@H]1NC(=O)CCCCCCCC(=O)NCCOC1=O | 9.5 | – | – |
| CC[C@H](C)[C@@H]1NC(=O)[C@H](C(C)C)NC(=O)CCCCCCC(=O)N[C@@H](Cc2ccccc2)COC1=O | 28.7 | – | – |
| CCC[C@H]1COC(=O)[C@H](C(C)C)NC(=O)CCCCCCCC(=O)N1 | 46.3 | – | – |
| CC(C)[C@@H]1NC(=O)CCCCCCCC(=O)N[C@@H](c2ccccc2)[C@@H](c2ccccc2)OC1=O | 14.1 | – | – |
| CC(C)[C@@H]1NC(=O)CCCCCCCC(=O)N[C@H]2[C@@H]3C[C@@H]4C[C@H]2C[C@@](C4)(C3)OC1=O | 14.1 | – | – |
| CC(C)[C@@H]1NC(=O)CCCCCCCC(=O)Nc2cccc(c2)OC1=O | 12.8 | – | – |
| CC(C)[C@H]1NC(=O)CCCCCCCCCCCC(=O)N[C@H](Cc2ccccc2)COC1=O | 91.5 | 15.8 | 114.5 |
| CC[C@H](C)[C@@H]1NC(=O)[C@H](C(C)C)NC(=O)CCCCCCCC(=O)N[C@@H](Cc2ccccc2)COC1=O | 91.3 | 21.8 | 20.8 |
| CC[C@H](C)[C@@H]1NC(=O)[C@H](C(C)C)NC(=O)CCCCCCCC(=O)NCCCOC1=O | 44.8 | – | – |
| CC(C)[C@@H]1NC(=O)CCCCCCCC(=O)N[C@@H](c2ccccc2)COC1=O | 50.2 | – | – |
| CC(C)C[C@H]1COC(=O)[C@H](C(C)C)NC(=O)CCCCCCCC(=O)N1 | 48.9 | – | – |
| CC[C@H](C)[C@@H]1NC(=O)[C@H](C(C)C)NC(=O)CCCCCCCC(=O)NCC(F)(F)COC1=O | 73.4 | 10.3 | 2.3 |
| CC(C)[C@@H]1NC(=O)CCCCCCCC(=O)NC(C)(C)CCOC1=O | 23.1 | – | – |
| CSCC[C@H]1COC(=O)[C@H](C(C)C)NC(=O)CCCCCCCC(=O)N1 | 34 | – | – |
| CC(C)[C@@H]1NC(=O)CCCCCCCC(=O)N[C@@H](Cc2ccccc2)COC(=O)[C@H](C)NC1=O | 55.5 | – | – |
| CC(C)[C@@H]1NC(=O)CCCCCCCC(=O)N[C@@H](Cc2ccccc2)COC(=O)CCCNC1=O | 26.8 | – | – |
| CC[C@H](C)[C@@H]1NC(=O)[C@H](C(C)C)NC(=O)CCCCCCCC(=O)N[C@@H](C)COC1=O | 49 | – | – |
| CC(C)[C@@H]1NC(=O)CCCCCCCCCCCC(=O)N[C@H](Cc2ccccc2)COC1=O | 75.4 | 17 | 51.3 |

| SMILES | inhibition at 10 µM [1] [%] | Activity [2] [%] | Ratio IC50 [3] |
| --- | --- | --- | --- |
| CC(C)[C@@H]1NC(=O)CCCCCCCC(=O)N[C@@H](Cc2ccccc2)COC(=O)[C@H](C(C)C)NC1=O | 91.1 | 15.8 | 7.9 |
| CC(C)[C@@H]1NC(=O)CCCCCCCC(=O)Nc2ccccc2COC1=O | 29.7 | – | – |
| CC(C)[C@@H]1NC(=O)CCCCCCCC(=O)NCCCCCCOC1=O | 21.1 | – | – |
| CC[C@H](C)[C@@H]1NC(=O)[C@H](C(C)C)NC(=O)CCCCCCCC(=O)N[C@@H](C(C)C)COC1=O | 63.6 | 18.6 | 1.9 |
| CC(C)[C@H]1NC(=O)CCCCCCCCCCCC(=O)N[C@@H](Cc2ccccc2)COC1=O | 68.3 | 16.7 | 57.2 |
| CC(C)[C@@H]1NC(=O)CCCCCCCCCC(=O)N[C@@H](Cc2ccccc2)COC1=O | 93.4 | 1.8 | 55.1 |
| CC(C)[C@@H]1NC(=O)CCCCCCCC(=O)N[C@H](c2ccccc2)CCOC1=O | 30.1 | – | – |
| CC[C@H](C)[C@@H]1NC(=O)[C@H](C(C)C)NC(=O)CCCCCCCC(=O)N[C@@H]2CC[C@H](C2)OC1=O | 72.2 | 20.5 | 1.4 |
| CC[C@H](C)[C@@H]1NC(=O)[C@H](C(C)C)NC(=O)CCCCCCCCC(=O)Nc2cccc(c2)COC1=O | 77.6 | 10.9 | 7.3 |
| CC(C)[C@@H]1NC(=O)CCCCCCC(=O)N[C@@H](Cc2ccccc2)COC1=O | 9.3 | – | – |
| CC[C@H](C)[C@@H]1NC(=O)[C@H](C(C)C)NC(=O)CCCCCCCC(=O)Nc2cccc(c2)COC1=O | 92.3 | 31 | 26.8 |
| CC(C)[C@@H]1NC(=O)CCCCCCCC(=O)N[C@@H](Cc2ccccc2)COC(=O)Cc2ccc(cc2)NC1=O | 35.9 | – | – |
| CC(C)[C@@H]1NC(=O)CCOCCOCCOCCC(=O)N[C@@H](Cc2ccccc2)COC1=O | 0.3 | – | – |
| CC(C)[C@@H]1NC(=O)CCCCCCCC(=O)N[C@@H](Cc2ccccc2)COC(=O)Cc2cccc(c2)NC1=O | 81.6 | 0 | 6.5 |
| CC(C)[C@@H]1NC(=O)CCCCCCCC(=O)NCC(C)(C)COC1=O | 38.8 | – | – |
| CC(C)[C@@H]1NC(=O)CCCCCCCC(=O)N[C@@H](Cc2ccccc2)COC(=O)[C@H](Cc2ccccc2)NC1=O | 88.9 | 0 | 2.7 |
| CC(C)[C@@H]1NC(=O)CCCCCCCC(=O)N[C@@H](C(C)C)COC1=O | 34.4 | – | – |
| CC(C)[C@@H]1NC(=O)CCCCCCCCCCCCC(=O)N[C@@H](Cc2ccccc2)COC1=O | 97.3 | 4.4 | 99.2 |
| CC[C@H](C)[C@@H]1NC(=O)[C@H](C(C)C)NC(=O)CCCCCC(=O)Nc2cccc(c2)COC1=O | 14.5 | – | – |
| CC[C@H](C)[C@@H]1NC(=O)[C@H](C(C)C)NC(=O)CCCCCCCC(=O)Nc2ccccc2COC1=O | 90.9 | 19.8 | 7.3 |
